Measured values taken from US20210087175A1, “Crystalline Form II of Darolutamide” (Sandoz AG, priority 2018, published 2021).

Key:
[1] = Gravimetric moisture sorption (GMS); format: physicochemical; conditions: for phase change during the GMS experiments: 0% to approximately 90% r.h.; for water uptake from 0% to 90% RH: 25±0.1° C.
Experimental: Moisture sorption isotherms were recorded with an SPSx-1p moisture sorption analyzer (ProUmid, Ulm. The measurement cycle was started at a relative humidity (r.h.) of 25%. Relative humidity was then decreased to 5% r.h. in 5% steps, followed by a further decrease to 3% r.h. and to 0% r.h. Afterwards r.h. was increased from 0% to approximately 90% r.h. in a sorption cycle and decreased to 0% in a desorption cycle in 5% steps. Finally r.h. was increased to 25% r.h. in 5% steps.
The time per step was set to a minimum of 2 hours and a maximum of 6 hours. If an equilibrium condition with a constant mass of 0.01% within 1 hour was reached before the maximum time for all examined samples the sequential humidity step was applied before the maximum time of 6 hours. If no equilibrium was achieved the consecutive humidity step was applied after the maximum time of 6 hours. The temperature was 25±0.1° C.

[2] = Time-dependent solubility of slurries (HPLC) in aqueous hydrochloric acid (0.1 N) and phosphate buffer (pH 7.5) at 37° C.; format: physicochemical
Experimental: a) Solubility in Aqueous Hydrochloric Acid (0.1 N)
102.39 mg of darolutamide form I were slurried in 20 mL aqueous hydrochloric acid (0.1 N) at 37° C.
99.41 mg of darolutamide form II were slurried in 20 mL aqueous hydrochloric acid (0.1 N) at 37° C.
b) Solubility in Phosphate Buffer (pH 7.5)
105.02 mg of darolutamide form I were slurried in 20 mL […] at 37° C.
103.41 mg of darolutamide form II were slurried in 20 mL […] at 37° C.
Samples were taken after 5 min, 15 min and 60 min. The suspensions were filtered and subjected undiluted to HPLC. The absolute solubility was calculated by creating a linear calibration curve (see below). Results are reported in Table 4 and in FIGS. 10 and 11.
Solutions of different concentrations (Table 5) of darolutamide were prepared in acetonitrile/water (75% v/v) at 37° C. and subjected to HPLC measurement. The resulting areas were illustrated as a function of the concentrations and a linear dependency could be observed (FIG. 12).

[3] = as above; format: physicochemical; conditions: phosphate buffer (pH 7.5)
[4] = Food effect / blood levels after oral administration; format: in vivo

SMILES	phase change during the GMS experiments ([1]; 25° C.)	water uptake from 0% to 90% RH ([1]; GMS)	solubility (concentration in solution) ([2]; slurry time 5 min) [µg/mL]	solubility (concentration in solution) ([2]; slurry time 15 min) [µg/mL]	solubility (concentration in solution) ([2]; slurry time 60 min) [µg/mL]	solubility (concentration in solution) ([3]; slurry time 5 min) [µg/mL]	solubility (concentration in solution) ([3]; slurry time 15 min) [µg/mL]	solubility (concentration in solution) ([3]; slurry time 60 min) [µg/mL]	hygroscopicity (comparison) ([1]; GMS, 25° C.)	food effect ([4]; compared to darolutamide Form I)	blood levels when administered without food ([4]; without food)
CC(O)c1cc(C(=O)N[C@@H](C)Cn2ccc(-c3ccc(C#N)c(Cl)c3)n2)n[nH]1 (mixture of isomers) [Form I, N-{(2S)-1-[3-(3-chloro-4-cyanophenyl)-1H-pyrazol-1-yl]-propan-2-yl}-5-[(1RS)-1-hydroxyethyl]-1H-pyrazole-3-carboxamide]	Neither form I nor form II underwent any phase change	+1.7%	43	41	38	43	40	42	–	–	–
CC(O)c1cc(C(=O)N[C@@H](C)Cn2ccc(-c3ccc(C#N)c(Cl)c3)n2)n[nH]1 (mixture of isomers) [Form II, N-{(2S)-1-[3-(3-chloro-4-cyanophenyl)-1H-pyrazol-1-yl]-propan-2-yl}-5-[(1RS)-1-hydroxyethyl]-1H-pyrazole-3-carboxamide]	Neither form I nor form II underwent any phase change	+1.3%	113	121	117	89	97	93	less hygroscopic than form I	significantly lower food effect	still achieving therapeutically effective blood levels
